Assay results as given in ChEMBL document CHEMBL1139311, “Synthesis of biflavones having a 6-O-7'' linkage and effects on cyclooxygenase-2 and inducible nitric oxide synthase” (Bioorg Med Chem Lett, 2009).

Experiments:
Type in all cases: cell-based
[1] = biological target: T1, Nitric oxide synthase, inducible (Mus musculus, UniProt P29477); assay: Inhibition of iNOS-mediated NO production in LPS-stimulated mouse RAW264.7 cells by Griess method
T1 sequence (P29477 whole entry): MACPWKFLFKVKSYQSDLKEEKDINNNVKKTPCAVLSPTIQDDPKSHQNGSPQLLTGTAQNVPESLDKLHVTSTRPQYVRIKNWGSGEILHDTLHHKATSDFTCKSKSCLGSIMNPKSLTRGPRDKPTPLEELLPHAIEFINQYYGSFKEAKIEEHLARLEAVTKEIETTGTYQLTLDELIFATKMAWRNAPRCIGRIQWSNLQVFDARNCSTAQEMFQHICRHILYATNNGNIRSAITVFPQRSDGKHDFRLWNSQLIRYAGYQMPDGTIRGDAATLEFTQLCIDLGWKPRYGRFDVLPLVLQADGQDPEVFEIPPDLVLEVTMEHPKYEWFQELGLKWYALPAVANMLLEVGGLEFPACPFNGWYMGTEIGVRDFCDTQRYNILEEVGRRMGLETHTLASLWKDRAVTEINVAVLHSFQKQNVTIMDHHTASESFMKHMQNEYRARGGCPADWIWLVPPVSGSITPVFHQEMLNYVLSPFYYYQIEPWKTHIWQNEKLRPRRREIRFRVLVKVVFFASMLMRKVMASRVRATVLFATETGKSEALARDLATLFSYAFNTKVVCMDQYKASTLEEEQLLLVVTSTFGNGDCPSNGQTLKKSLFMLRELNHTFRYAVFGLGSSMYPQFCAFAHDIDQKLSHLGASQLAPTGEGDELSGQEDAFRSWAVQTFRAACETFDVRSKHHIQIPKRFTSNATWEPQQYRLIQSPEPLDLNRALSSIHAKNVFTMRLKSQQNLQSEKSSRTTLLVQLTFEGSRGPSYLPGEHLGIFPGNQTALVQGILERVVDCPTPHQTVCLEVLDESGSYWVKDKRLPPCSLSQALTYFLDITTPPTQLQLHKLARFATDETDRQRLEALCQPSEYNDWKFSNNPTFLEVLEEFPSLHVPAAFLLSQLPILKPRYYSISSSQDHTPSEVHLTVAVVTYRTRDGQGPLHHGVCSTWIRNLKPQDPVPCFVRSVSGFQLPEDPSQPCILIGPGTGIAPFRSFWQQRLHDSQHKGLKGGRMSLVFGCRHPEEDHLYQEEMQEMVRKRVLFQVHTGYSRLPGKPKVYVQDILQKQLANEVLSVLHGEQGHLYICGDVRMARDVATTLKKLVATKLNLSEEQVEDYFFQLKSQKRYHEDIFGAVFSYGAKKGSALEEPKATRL

[2] = biological target: T2, Prostaglandin G/H synthase 2 (Mus musculus, UniProt Q05769); assay: Inhibition of COX2-mediated PGE2 production in LPS-stimulated mouse RAW264.7 cells by ELISA
T2 sequence (Q05769 whole entry): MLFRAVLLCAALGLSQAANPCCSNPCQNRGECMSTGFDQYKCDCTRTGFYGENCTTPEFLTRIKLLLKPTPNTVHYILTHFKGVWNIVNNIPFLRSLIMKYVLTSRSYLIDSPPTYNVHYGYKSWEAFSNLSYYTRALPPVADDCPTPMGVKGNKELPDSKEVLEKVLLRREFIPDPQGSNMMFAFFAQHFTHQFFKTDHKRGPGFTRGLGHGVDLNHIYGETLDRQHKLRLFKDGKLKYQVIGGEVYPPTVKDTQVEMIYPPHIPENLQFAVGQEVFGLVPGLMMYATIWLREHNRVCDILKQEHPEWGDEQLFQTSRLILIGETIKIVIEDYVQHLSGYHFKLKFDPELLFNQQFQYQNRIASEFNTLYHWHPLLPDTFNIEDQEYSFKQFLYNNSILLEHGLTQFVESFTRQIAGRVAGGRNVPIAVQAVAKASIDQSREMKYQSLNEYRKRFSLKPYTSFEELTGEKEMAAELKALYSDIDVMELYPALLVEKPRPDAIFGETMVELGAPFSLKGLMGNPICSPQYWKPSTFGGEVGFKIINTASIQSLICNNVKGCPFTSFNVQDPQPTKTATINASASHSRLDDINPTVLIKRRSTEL

[3] = biological target: T3, Nitric oxide synthase, inducible (Mus musculus) (UniProt P29477); assay: Inhibition of iNOS-mediated NO production in LPS-stimulated mouse RAW264.7 cells at […]
T3 sequence (whole entry): T1 sequence (P29477 whole entry)

Structure (SMILES) | IC50 [1] | IC50 [2] | inhibition [3]
COc1ccc(-c2cc(=O)c3ccc(Oc4ccc5oc(-c6ccc(OC)cc6OC)cc(=O)c5c4)cc3o2)c(OC)c1 | > 50 µM | 50 µM | 
COc1ccc(-c2cc(=O)c3cc(Oc4ccc5c(=O)cc(-c6ccc(OC)cc6OC)oc5c4)ccc3o2)cc1 | > 50 µM | > 50 µM | 
O=c1cc(-c2ccc(O)cc2)oc2ccc(Oc3ccc4c(=O)cc(-c5ccc(O)cc5O)oc4c3)cc12 | 50 µM | > 50 µM | 
O=c1cc(-c2ccc(O)cc2)oc2cc(Oc3ccc4oc(-c5ccc(O)cc5O)cc(=O)c4c3)ccc12 | > 50 µM | > 50 µM | 
COc1ccc(-c2cc(=O)c3cc(Oc4ccc5c(=O)cc(-c6ccccc6)oc5c4)ccc3o2)c(OC)c1 |  | 2 µM | 
O=c1cc(-c2ccc(O)cc2O)oc2cc(Oc3ccc4oc(-c5ccc(O)cc5O)cc(=O)c4c3)ccc12 | 10 µM | 10 µM | 
COc1ccc(-c2cc(=O)c3ccc(Oc4ccc5oc(-c6ccc(OC)cc6OC)cc(=O)c5c4)cc3o2)cc1 | > 50 µM | > 50 µM | 
O=c1cc(-c2ccccc2)oc2cc(Oc3ccc4oc(-c5ccccc5)cc(=O)c4c3)ccc12 | > 50 µM | < 2 µM | 
O=c1cc(-c2ccccc2)oc2cc(Oc3ccc4oc(-c5ccccc5O)cc(=O)c4c3)ccc12 |  | > 50 µM | 
O=c1cc(-c2ccccc2)oc2cc(Oc3ccc4oc(-c5ccc(O)cc5O)cc(=O)c4c3)ccc12 |  | > 50 µM | 
O=c1cc(-c2ccc(O)cc2)oc2cc(Oc3ccc4oc(-c5ccc(O)cc5)cc(=O)c4c3)ccc12 |  | > 50 µM | 
COc1ccccc1-c1cc(=O)c2cc(Oc3ccc4c(=O)cc(-c5ccccc5)oc4c3)ccc2o1 |  | > 50 µM | 
COc1ccc(-c2cc(=O)c3cc(Oc4ccc5c(=O)cc(-c6ccccc6)oc5c4)ccc3o2)cc1 |  | 2 µM | 
CC1CCN=C(N)S1 (stereo not drawn) |  |  | 92.5%
O=c1cc(-c2ccc(O)cc2)oc2cc(Oc3ccc4oc(-c5ccccc5O)cc(=O)c4c3)ccc12 | 10 µM | > 50 µM | 
